Assays:
zebrafish larvae [1] = experiment: tail fin regeneration assay; settings: for tissue regeneration of tail fin: Example 2, amputation at 2 dpf, read at 5 dpf; for tissue regeneration upon wounding: Example 2, wounded at 2 dpf (second statement on FIG. 8F); for regeneration of amputated tail fin (length of regenerated tissue at 5 dpf): 0-5 dpf, 10 μM beclomethasone or dexamethasone, 50 μM Rg1 or combinations, amputation at 2 dpf
Procedure: (§1) In experiments in which the length of regenerated tail fin tissue after wounding, or the larval body length, was used as a readout, chemical treatments were started at 2 hours post-fertilization (hpf) and continued until 5 dpf, as indicated (15 larvae per treatment group). During this period, solutions were refreshed daily. For the regeneration experiments, tail fins were amputated at 2 dpf. At 5 dpf, larvae were fixed overnight in 4% PFA at 4° C. For determination of the larval length and the regeneration of the tail fins, larvae were imaged using a LeicaMZ16FA fluorescence stereomicroscope supported by LAS 3.7 software. The length of the entire larva or the newly grown tissue was measured using ImageJ software. The newly grown tissue can be visually distinguished from the old tissue, enabling precise measurement of its length.

zebrafish larvae [2] = experiment: larval body length; settings: for larval length: Example 2, 5 dpf; for larval length at 5 dpf: 0-5 dpf, 10 μM beclomethasone, 50 μM Rg1 or combination
Procedure: as §1

mmp13 = experiment: qPCR mmp13 expression in zebrafish larvae; format: in vivo, zebrafish (Danio rerio); settings: Example 2, wounded larvae
Procedure: To determine mRNA levels of specific genes in zebrafish, 3 dpf larvae were used (wounded and non-wounded) and after 6 h of chemical treatments (2 h pre-wounding, 4 h post-wounding), as indicated. Per sample, groups of 15 larvae were collected in TRIzol reagent (Thermo Fisher Scientific, Waltham, MA, USA), and total RNA was isolated using the miRNeasy mini kit (Qiagen, Hilden, Germany). For similar experiments in Hela cells, cells were seeded in 6 well plates, and after 6 h of chemical treatment, the cells were removed from the wells using TRIzol reagent, and total RNA was isolated using the miRNeasy mini kit according to the manufacturer's instructions. The RNA samples were DNAse-treated utilizing the DNA-free™ DNA Removal Kit (Thermo Fisher Scientific). The cDNA synthesis was performed using the iScript cDNA synthesis kit (Bio-Rad Laboratories, Hercules, CA, USA) using 1 μg of RNA per sample. For the PCR reactions, 10 μM of forward and 10 μM of reverse primer, 12.5 μl of iQ SYBR Green Supermix (Bio-Rad), and 2 μl of cDNA were added to the qPCR reaction mixture. […] The reactions were performed on a MyiQ-single-color real-time PCR detection system (Bio-Rad Laboratories) with initial denaturation for 3 min at 95° C. and 40 cycles of 15 s at 95.5° C., 15 s at 60° C., and 30 s at 72° C. Cycle threshold values (Ct values, i.e. the cycle numbers at which a threshold value of the fluorescence intensity was reached) were determined for each sample. The gene expression level for each sample was normalized using the expression of ppial (peptidylprolyl isomerase Ab (cyclophilin A)) for zebrafish samples, 18S rRNA for human cells. The fold change per sample (compared to the respective control group) was calculated using the ΔΔCt method.

macrophages = experiment: zebrafish tail fin wounding assay, macrophage migration to wounded site; format: in vivo, zebrafish (Danio rerio); settings: Example 2; PPT 50 μM; F1, Rh1, Rg1 100 μM; Bec positive control; 3 dpf
Procedure: Zebrafish (Danio rerio) were maintained and handled according to the guidelines from the Zebrafish Model Organism Database (http://zfin.org) and in compliance with the directives of the local animal welfare committee of Leiden University. Zebrafish were exposed to a 14 h light and 10 h dark cycle to maintain circadian rhythmicity. Fertilization was performed by natural spawning at the beginning of the light period. […] The following zebrafish lines were used in this study: the double transgenic line Tg(mpx:GFP^i114/mpeg1:mCherry^umsF001), in which neutrophils and macrophages are fluorescently labeled (green and red, respectively), and the Tg(9xGCRE-HSV.UI23:EGFP)^ia20 reporter line, in which the gene encoding enhanced green fluorescent protein (EGFP) is driven by a GRE-containing promoter.
For the tail fin wounding experiments, 20 larvae at 2 or 3 days post-fertilization (dpf) were utilized for each experimental group. For wounding, larvae were anesthetized in egg water containing 0.02% buffered aminobenzoic acid ethyl ester (tricaine; Sigma-Aldrich). Larvae were placed on Petri dishes coated with 2% agarose under a Leica M165C stereomicroscope (Leica Microsystems, Wetzlar, Germany), and the tails were partly amputated using a 1-mm sapphire blade (World Precision Instruments, Sarasota, FL, USA). For quantification of leukocyte migration, larvae were fixed overnight in 4% paraformaldehyde (PFA) at 4° C. The next day, fixed larvae were washed with Phosphate Buffered Saline (PBS) containing 0.1% Tween 20, and stored at 4° C. until imaging.
The macrophages were detected based on their red (mCherry) fluorescence, and neutrophils based on their green (EGFP) fluorescence. To quantify the number of macrophages and neutrophils recruited to the wounded area, the cells in a defined area of the tail were determined by blinded manual counting.
Zebrafish (Danio rerio) were maintained and handled according to the guidelines from the Zebrafish Model Organism Database (http://zfin.org) and in compliance with the directives of the local animal welfare committee of Leiden University. Zebrafish were exposed to a 14 h light and 10 h dark cycle to maintain circadian rhythmicity. Fertilization was performed by natural spawning at the beginning of the light period. […] The following zebrafish lines were used in this study: AB/TL wild type, the transgenic lines Tg(mpx:GFP^i114/mpeg1:mCherry^umsF001)[14, 15], and Tg(9xGCRE-HSV.UI23:EGFPia^20)[16], and the mutant lines grs357[20].
For the tail fin wounding experiments, 2- or 3-days post-fertilization (dpf) larvae were anesthetized in egg water containing 0.02% buffered aminobenzoic acid ethyl ester (tricaine; Sigma-Aldrich). Larvae were placed in Petri dishes coated with 2% agarose under a Leica M165C stereomicroscope (Leica Microsystems, Wetzlar, Germany), and the tails were partly amputated using a 1-mm sapphire blade (World Precision Instruments, Sarasota, FL, USA).
In experiments in which the leukocyte migration was used as a readout, larvae were subjected to treatment with chemicals as indicated, starting at 2 h before the amputation (pretreatment), and treatment was continued for 4 h after the tail fin amputation (20 larvae per group, unless indicated otherwise). In some experiments, a 24 h treatment with MZ31 (10 μM) was started at 2 dpf, and these treatments were continued during the pretreatment and treatment with the other chemicals. At 4 h after amputation, the larvae were fixed in 4% paraformaldehyde (PFA) overnight at 4° C. The next day, fixed larvae were washed with Phosphate Buffered Saline (PBS) containing 0.1% Tween 20 and stored at 4° C. until imaging. […] The macrophages were detected based on red (mCherry) fluorescence and neutrophils on their green (EGFP) fluorescence. To quantify the number of macrophages and neutrophils recruited to the wounded area, the cells in a defined area of the tail were determined by blinded manual counting. […]

With CC(C)=CCC[C@](C)(O)[C@H]1CC[C@]2(C)[C@@H]1[C@H](O)C[C@@H]1[C@@]3(C)CC[C@H](O)C(C)(C)[C@@H]3[C@@H](O)C[C@]12C [PPT, Protopanaxatriol] as the compound, how does the “tissue regeneration of tail fin” value (zebrafish larvae [1]) read?
Its value is “considerably inhibited the regeneration of the tail fin after wounding”.

What about the larval length (zebrafish larvae [2]) of the same compound?
Its larval length is “minor effect on larval length”.

And the mmp13 expression (mmp13)?
The mmp13 expression was “Only a minor effect”.

What about the “macrophage migration upon tail fin wounding” value (macrophages) of the same compound?
The value was “without affecting the macrophage migration”.

Which results are given for CC(C)=CCC[C@](C)(O[C@@H]1O[C@H](CO)[C@@H](O)[C@H](O)[C@H]1O)[C@H]1CC[C@]2(C)[C@@H]1[C@H](O)C[C@@H]1[C@@]3(C)CC[C@H](O)C(C)(C)[C@@H]3[C@@H](O)C[C@]12C [F1]?
tissue regeneration of tail fin (zebrafish larvae [1]): did not show any side effects; tissue regeneration upon wounding (zebrafish larvae [1]): minor effect on the cortisol level and on tissue regeneration; tissue regeneration effect in presence of Gba2 inhibitor MZ31 (zebrafish larvae [1]; Example 2, wounded, with MZ31): These latter effects were Gba2-dependent; larval length (zebrafish larvae [2]): did not show any side effects; mmp13 expression (mmp13): Only a minor effect; macrophage migration upon tail fin wounding (macrophages): without affecting the macrophage migration

Which results are given for C[C@H]1C[C@H]2[C@@H]3CCC4=CC(=O)C=C[C@]4(C)[C@@]3(Cl)[C@@H](O)C[C@]2(C)[C@@]1(O)C(=O)CO [beclomethasone, reference compound]?
regeneration of amputated tail fin (length of regenerated tissue at 5 dpf) (zebrafish larvae [1]): inhibited the regeneration; tissue regeneration of tail fin (zebrafish larvae [1]): inhibited the tissue regeneration; larval length at 5 dpf (zebrafish larvae [2]): significantly decreased; larval length (zebrafish larvae [2]): decrease in larval length; macrophage migration upon tail fin wounding (macrophages): without affecting the macrophage migration

With CC(C)=CCC[C@](C)(O)[C@H]1CC[C@]2(C)[C@@H]1[C@H](O)C[C@@H]1[C@@]3(C)CC[C@H](O)C(C)(C)[C@@H]3[C@@H](O[C@@H]3O[C@H](CO)[C@@H](O)[C@H](O)[C@H]3O)C[C@]12C [Rh1] as the compound, how does the “tissue regeneration of tail fin” value (zebrafish larvae [1]) read?
The value was “did not show any side effects”.

And the “tissue regeneration upon wounding” value (zebrafish larvae [1])?
Its value is “still not show any effect on the glucose or cortisol level or on tissue regeneration”.

And the larval length (zebrafish larvae [2])?
Its larval length is “did not show any side effects”.

And the mmp13 expression (mmp13)?
The mmp13 expression was “no effect”.

What about the “macrophage migration upon tail fin wounding” value (macrophages) of the same compound?
Its value is “without affecting the macrophage migration”.

How did the “regeneration of amputated tail fin (length of regenerated tissue at 5 dpf)” value (zebrafish larvae [1]) turn out when CC(C)=CCC[C@](C)(O[C@@H]1O[C@H](CO)[C@@H](O)[C@H](O)[C@H]1O)[C@H]1CC[C@]2(C)[C@@H]1[C@H](O)C[C@@H]1[C@@]3(C)CC[C@H](O)C(C)(C)[C@@H]3[C@@H](O[C@@H]3O[C@H](CO)[C@@H](O)[C@H](O)[C@H]3O)C[C@]12C [Rg1, (3β,6α, 12β)-3,12-Dihydroxydammar-24-ene-6,20-diyl bis-β-D-glucopyranoside] was run?
The value was “did not affect the regenerative process”.

What about the “tissue regeneration of tail fin” value (zebrafish larvae [1]) of the same compound?
Its value is “did not show any side effects”.

And the “tissue regeneration upon wounding” value (zebrafish larvae [1])?
Its value is “still not show any effect on the glucose or cortisol level or on tissue regeneration”.

What about the “larval length at 5 dpf” value (zebrafish larvae [2]) of the same compound?
The value was “did not affect the larval length”.

What about the larval length (zebrafish larvae [2]) of the same compound?
The larval length was “did not show any side effects”.

What about the mmp13 expression (mmp13) of the same compound?
The mmp13 expression was “no effect”.

What about the “macrophage migration upon tail fin wounding” value (macrophages) of the same compound?
Its value is “without affecting the macrophage migration”.
